# Publication PMC8868297, “Stapling of Peptides Potentiates the Antibiotic Treatment of Acinetobacter baumannii In Vivo” (Antibiotics, 2022)
# Where two headings read alike, the source gives them in different places. Bridge positions count the residues as written; N and C are the ends. Square brackets hold non-standard residues; d marks the D form. Ends that are not written are not given here. Peptide text beside a SMILES is read from it. R8 = C=CCCCCCC[C@@](C)(N)C(=O)O; S5 = C=CCCC[C@](C)(N)C(=O)O
# Key:
# A. baumannii 1757 [1] = test: Zebrafish larvae infection model; details: rifampicin / erythromycin experiment (Table S8); infected larvae, caudal vein injection, five days post infection; mean of three independent experiments
# Protocol: Transparent Casper zebrafish (Danio rerio) larvae were infected and treated according to protocols described by Van der Sar et al. and Bernard et al. [43, 44]. In short, zebrafish larvae collected from a laboratory-breeding colony kept at 24 °C and a 12:12 h dark/light regime. Larvae were selected based on morphology according to hours post fertilization (hpf) and kept at 28 °C. All protocols followed the international guidelines on the protection of animals used for scientific purposes specified by the EU Directive 2010/63/EU, which allows zebrafish larvae to be used up to the moment of free-living (5–7 dpf). Larvae were dechorionated at 28 hpf and anaesthetized in 0.2% tricaine methanesulfonate (MS222, Fluka A-5040). Larvae were individually infected with 1 nL, containing approximately 100–150 CFU (1–1.5 CFU/mL), of Gram-negative bacteria via microinjection of the caudal vein as described previously [33]. One hour post infection, larvae were treated with cationic (stapled) peptides, antibiotics or a combination of the two via another microinjection of 1 nL in the caudal vein. […] Zebrafish larvae were kept at 30 °C throughout the experiment and survival of the larvae, based on heartbeat, was determined every 24 h for 5 days.
# zebrafish larvae = test: Toxicity in zebrafish larvae (survival after caudal vein injection); details: survival of uninfected larvae vs vehicle (50% DMSO), five days
# Protocol: Transparent Casper zebrafish (Danio rerio) larvae were infected and treated according to protocols described by Van der Sar et al. and Bernard et al. [43, 44]. In short, zebrafish larvae collected from a laboratory-breeding colony kept at 24 °C and a 12:12 h dark/light regime. Larvae were selected based on morphology according to hours post fertilization (hpf) and kept at 28 °C. All protocols followed the international guidelines on the protection of animals used for scientific purposes specified by the EU Directive 2010/63/EU, which allows zebrafish larvae to be used up to the moment of free-living (5–7 dpf). Larvae were dechorionated at 28 hpf and anaesthetized in 0.2% tricaine methanesulfonate (MS222, Fluka A-5040). Larvae were individually infected with 1 nL, containing approximately 100–150 CFU (1–1.5 CFU/mL), of Gram-negative bacteria via microinjection of the caudal vein as described previously [33]. One hour post infection, larvae were treated with cationic (stapled) peptides, antibiotics or a combination of the two via another microinjection of 1 nL in the caudal vein. To correct dilution of the treatment upon injection in the vein (1 nL in 250 nL zebrafish larvae volume), treatments were diluted in 0.1% phenol red (Sigma-Aldrich, p-0290) in phosphate buffered saline (PBS) to 250 times the concentration as tested in vitro. Zebrafish larvae were kept at 30 °C throughout the experiment and survival of the larvae, based on heartbeat, was determined every 24 h for 5 days.
# [2] = normal pooled human serum, 100 µM peptide from 10 mM DMSO stock, 37 °C, samples at 0, 15, 60 min, TCA precipitation, LC-MS TIC vs carbamazepine internal standard, triplicate; Figure 2C
# Protocol: The stability measurements were performed in normal pooled human serum (PHS). The respective peptide was diluted to a final concentration of 100 μM in the aforementioned human serum (from 10 mM peptide stocks in DMSO). Then, 100 μM Carbamazepine was used as an internal standard; 60 μL of aforementioned peptide/Carbamazepine solution in PHS was incubated for 1h at 37 °C/750 rpm and 20 μL samples were taken after 0 min, 15 min and 60 min. Next, 1.5 μL of TCA was added to the sample to precipitate serum proteins. The samples were subsequently incubated on ice for 10 min and then centrifuged (12,000× g, 10 min). Then, 5 μL of supernatant was diluted in 20 μL of H2O/MeCN + 0.1% TFA. The sample was subsequently analyzed by LCMS on an Nucleodur C4-column (Macherey Nagel CC125/4 Nucleodur C4 Gravity, 5 µm) using a linear aqueous MeCN gradient containing FA (0.1%, v/v) and TFA (0.01%, v/v) as ion pair reagent (5–95%, 8 min). Peptides were quantified using the total ion count (TIC) of selected molecular ions. Remaining peptide quantities were calculated by normalizing the peptide peak areas using the internal standard peak areas and subsequently comparing the obtained value with the 0 min measurement. All measurements were performed in triplicate.
# sheep red blood cells = details: sheep RBCs in DMEM, 1 h, 32 °C, OD405; relative to 1% Triton-X100; negative control polymyxin B nonapeptide
# Protocol: Defibrinated sheep blood was purchased from BioTrading (LOT 21118SG66, Mijdrecht, The Netherlands) and kept at 4 °C. As previously described by Phan et al., red blood cells (RBCs) were pelleted by centrifugation at 600× g for 7 min at 4 °C and gently resuspended in phenol red-free Dulbecco’s Modified Eagle Medium (DMEM, Gibco 21063-029, ThermoFisher Scientific, Waltham MA, United States). This was repeated five times until the supernatant appeared colorless. In the meantime, 10-fold dilution series of the peptides at 50 μM, 5 μM and 0.5 μM in 50 µl DMEM, 1% DMSO were made in polypropylene microtiter plates (Ratiolab, L6018123, Dreieich, Germany). Triton-X100 (1%, Sigma-Aldrich T-8787) and DMSO (10%, Sigma-Aldrich D-8418) were used as positive and negative controls, respectively. Polymyxin B (Sigma-Aldrich, p-1411) and polymyxin B nonapeptide (Sigma-Aldrich, p-2076) were used as reference lytic and non-lytic peptides. Then, 50 µL of RBCs was added to each well. The plate was sealed and incubated at 5% CO2 for one hour at 32 °C, after which the plate was centrifuged at 610× g for 5 min at room temperature. Next, 70 µL supernatant was removed and transferred to a flat-bottomed polystyrene microtiter plate (Costar, REF3779) and the OD405, as a measure of released hemoglobin, was determined using a microplate reader (Synergy H1 Multi-Mode Reader or Synergy HTX Multi-Mode Reader, BioTek). Percentage of hemolysis was calculated using the following equation: (2) % hemolysis=(absorbance test sample)-(absorbance diluent)/(absorbance positive control)-(absorbance diluent)
# circular dichroism = details: 5 mM sodium phosphate; pH 7.5; 20 °C; 7.5 uM
# A. baumannii 1757 [3] = test: MIC / checkerboard synergy assay (also with added LPS); type: cell-based, Acinetobacter baumannii; details: for MIC (compound alone): LB broth, MIC = 90% of growth prevented, OD600 over 12 h
# Protocol: (§1) Minimum inhibitory concentrations of the peptides and antibiotics were determined according to the protocol described by Wiegand et al.. Briefly, two-fold dilution series of cationic peptides in 50 µL volume of LB broth containing 2% DMSO were made in polypropylene 96-well microtiter plates (Ratiolab, L6018123, Dreieich, Germany). The optical density at 600 nm (OD600) of growing bacterial cultures was followed, and at mid-log-phase (OD600 ~0.4–0.5) cultures were diluted to OD600 0.02 and 50 µL was added to the wells, resulting in a total volume of 100 µl, an OD600 of ~0.01 and a DMSO concentration of 1%. An OD600 of ~0.01 accounted for approximately 3 × 10^8 colony forming units per mL (CFU/mL) for A. baumannii, 1 × 10^7 CFU/mL for E. coli and 5 × 10^7 CFU/mL for K. pneumoniae as determined by plate counting.
# (§2) In a similar manner, two-fold dilution series of antibiotics were made in polystyrene microtiter plates (Costar, REF3779, Corning NY, United States) in 70 µL volume of LB broth. Then, 50 µL of the antibiotic series was transferred to the peptide containing polypropylene plate, resulting in a checkerboard titration of a peptide on the vertical axis and an antibiotic on the horizontal axis. To some checkerboard assays 15 µg/mL isolated smooth (sm) LPS (from E. coli O55:B5, Sigma-Aldrich, L2880), rough (Ra) LPS (from E. coli EH100, Sigma-Aldrich, L9641) or deep rough (Rd) LPS (from E. coli F583, Sigma-Aldrich, L6893) LPS was added to the LB broth. Mid-log phase cultures were diluted to OD600 0.1 and 10 µL culture was added to each well of the microtiter plate, resulting in a total volume of 110 µL and an OD600 of ~0.01 (~3 × 10^8 CFU/mL), and the OD600 was measured every 15 min for 12 h using the microplate reader. First, the MIC values of the antibiotics alone and the MIC values of the peptides alone were determined as described previously. Similarly, the MIC values of the antibiotics in combination with the different peptides and the MIC values of the peptides in combination with the antibiotics were determined (the fractional inhibitory concentrations (FIC)). […] An FICindex between 0.5 and 1 was considered to be an additive effect.
# A. baumannii 1681 = test: MIC / checkerboard synergy assay; type: cell-based, Acinetobacter baumannii
# Protocol: as §1, §2
# A. baumannii 2196 = test: MIC / checkerboard synergy assay; type: cell-based, Acinetobacter baumannii
# Protocol: as §1, §2
# K. pneumoniae 94 = test: MIC / checkerboard synergy assay; type: cell-based, Klebsiella pneumoniae
# Protocol: as §1, §2
# K. pneumoniae 821 = test: MIC / checkerboard synergy assay; type: cell-based, Klebsiella pneumoniae
# Protocol: as §1, §2
# K. pneumoniae 613 = test: MIC / checkerboard synergy assay; type: cell-based, Klebsiella pneumoniae
# Protocol: as §1, §2
# E. coli 31 = test: MIC / checkerboard synergy assay; type: cell-based; details: Escherichia coli, 31, 12 h; read-out: MIC (compound alone)
# Protocol: as §1
# (§3) In a similar manner, two-fold dilution series of antibiotics were made in polystyrene microtiter plates (Costar, REF3779, Corning NY, United States) in 70 µL volume of LB broth. […] Mid-log phase cultures were diluted to OD600 0.1 and 10 µL culture was added to each well of the microtiter plate, resulting in a total volume of 110 µL and an OD600 of ~0.01 (~3 × 10^8 CFU/mL), and the OD600 was measured every 15 min for 12 h using the microplate reader. First, the MIC values of the antibiotics alone and the MIC values of the peptides alone were determined as described previously. […]
# E. coli gsk12 = test: MIC / checkerboard synergy assay; type: cell-based, Escherichia coli
# Protocol: as §1, §3
# [4] = compound alone, LB broth, MIC = 90% of growth prevented, OD600 over 12 h, mean ± SD
compound,measurement,setting,value
"CC[C@H]1OC(=O)[C@H](C)[C@@H](O[C@H]2C[C@@](C)(OC)[C@@H](O)[C@H](C)O2)[C@H](C)[C@@H](O[C@@H]2O[C@H](C)C[C@H](N(C)C)[C@H]2O)[C@](C)(O)C[C@@H](C)C(=O)[C@H](C)[C@@H](O)[C@]1(C)O [Erythromycin, erythromycin]",Survival (%),A. baumannii 1757 [1],0.01%
CC(C)C[C@H](NC(=O)[C@H](CCCNC(=N)N)NC(=O)[C@@H](N)CCCNC(=N)N)C(=O)N[C@@H](Cc1ccccc1)C(=O)N[C@@H](CCCNC(=N)N)C(=O)N[C@@H](CCCNC(=N)N)C(=O)N[C@@]1(C)CCCC=CCCC[C@@](C)(C(N)=O)NC(=O)[C@H](Cc2c[nH]c3ccccc23)NC(=O)[C@H](CCCNC(=N)N)NC(=O)[C@H](CC(C)C)NC1=O [Peptide L6S2] (H-RRLFRR[S5]LRW[S5]-NH2; staple 7-11),Log2FoldChange compared to vehicle injected,zebrafish larvae,-1.21
same,stability in human serum (in words),[2],highest stabilities
same,hemolysis at 50 µM,sheep red blood cells,significantly more hemolytic to the RBCs than the negative control
same,helicity,circular dichroism,19%
same,MIC (compound alone),A. baumannii 1757 [3]; mean ± SD,0.93 ± 0.69 µM
CC[C@H](C)[C@@H]1NC(=O)[C@H](CCCNC(=N)N)NC(=O)[C@H](CCC(N)=O)NC(=O)[C@](C)(NC(=O)[C@@H](NC(=O)[C@H](CCCNC(=N)N)NC(=O)[C@@H](N)CCCCN)[C@@H](C)CC)CCCCCCC=CCCC[C@@](C)(C(=O)N[C@@H](CCCNC(=N)N)C(N)=O)NC(=O)[C@H](Cc2c[nH]c3ccccc23)NC(=O)[C@H](CCCCN)NC(=O)[C@H](CCCCN)NC1=O [Peptide L8S3] (H-KRI[R8]QRIKKW[S5]R-NH2; staple 4-11),Log2FoldChange compared to vehicle injected,zebrafish larvae,-0.08
same,stability in human serum (in words),[2],highest stabilities
same,hemolysis at 50 µM,sheep red blood cells,significantly more hemolytic to the RBCs than the negative control
same,helicity,circular dichroism,25%
same,MIC (compound alone),A. baumannii 1757 [3]; mean ± SD,0.57 ± 0.23 µM
"CN[C@H](CC(C)C)C(=O)N[C@H]1C(=O)N[C@@H](CC(N)=O)C(=O)N[C@H]2C(=O)N[C@H]3C(=O)N[C@H](C(=O)N[C@H](C(=O)O)c4cc(O)cc(O)c4-c4cc3ccc4O)[C@H](O)c3ccc(c(Cl)c3)Oc3cc2cc(c3O[C@@H]2O[C@H](CO)[C@@H](O)[C@H](O)[C@H]2O[C@H]2C[C@](C)(N)[C@H](O)[C@H](C)O2)Oc2ccc(cc2Cl)[C@H]1O [Vancomycin, vancomycin]",MIC,"A. baumannii 1681; Acinetobacter baumannii, 1681, 12 h, read-out: MIC (compound alone)",19 ± 4.56 µM
same,MIC,"A. baumannii 2196; Acinetobacter baumannii, 2196, 12 h, read-out: MIC (compound alone)",34.7 ± 24 µM
same,Log2FoldChange compared to vehicle injected,zebrafish larvae,-0.26
same,MIC,"K. pneumoniae 94; Klebsiella pneumoniae, 94, 12 h, read-out: MIC (compound alone)",263 ± 180 µM
same,MIC,"K. pneumoniae 821; Klebsiella pneumoniae, 821, 12 h, read-out: MIC (compound alone)",197 ± 194 µM
same,MIC,"K. pneumoniae 613; Klebsiella pneumoniae, 613, 12 h, read-out: MIC (compound alone)",269 ± 140 µM
same,MIC,E. coli 31,24.5 ± 8.81 µM
same,MIC,"A. baumannii 1757 [3]; Acinetobacter baumannii, 1757, 12 h, read-out: MIC (compound alone)",5.98 ± 4.55 µM
same,MIC,"A. baumannii 1757 [3]; Acinetobacter baumannii, 1757, LB medium with soluble deep rough LPS 15 µg/ml, mean ± SD, read-out: MIC, + Rd-LPS (F583)",5.66 ± 4.15 µM
same,MIC,"A. baumannii 1757 [3]; Acinetobacter baumannii, 1757, LB medium with soluble rough LPS 15 µg/ml, mean ± SD, read-out: MIC, + Ra-LPS (EH100)",9.86 ± 7.36 µM
same,MIC,"A. baumannii 1757 [3]; Acinetobacter baumannii, 1757, LB medium with soluble smooth LPS 15 µg/ml, mean ± SD, read-out: MIC, + Sm-LPS (055:B5)",5.88 ± 3.56 µM
same,MIC,"A. baumannii 1757 [3]; Acinetobacter baumannii, 1757, LB medium without supplement (Table S4), mean ± SD, read-out: MIC, No supplement",3.03 ± 2.52 µM
same,MIC,"E. coli gsk12; Escherichia coli, GSK12, 12 h, read-out: MIC (compound alone)",78.7 ± 5.3 µM
same,MIC (compound alone),E. coli gsk12; [4],78.65 ± 5.3 µM
RRLFRRILRWL-NH2 [Peptide L6],MIC (compound alone),A. baumannii 1681; [4],"0,66±0,13 µM"
same,MIC (compound alone),A. baumannii 2196; [4],"0,91±0,59 µM"
same,Log2FoldChange compared to vehicle injected,zebrafish larvae,-0.04
same,MIC (compound alone),K. pneumoniae 94; [4],"0,63±0,29 µM"
same,MIC (compound alone),K. pneumoniae 821; [4],"2,44±2,17 µM"
same,MIC (compound alone),K. pneumoniae 613; [4],"0,65±0,15 µM"
same,hemolysis at 50 µM,sheep red blood cells,up to 50%
same,helicity,circular dichroism,15%
same,"MIC, + Rd-LPS (F583)","A. baumannii 1757 [3]; LB medium with soluble deep rough LPS 15 µg/ml, mean ± SD",0.34 ± 0.40 µM
same,"MIC, + Ra-LPS (EH100)","A. baumannii 1757 [3]; LB medium with soluble rough LPS 15 µg/ml, mean ± SD",2.50 ± 3.83 µM
same,"MIC, + Sm-LPS (055:B5)","A. baumannii 1757 [3]; LB medium with soluble smooth LPS 15 µg/ml, mean ± SD",9.85 ± 16.34 µM
same,"MIC, No supplement","A. baumannii 1757 [3]; LB medium without supplement (Table S4), mean ± SD",1.2 ± 0.43 µM
same,MIC (compound alone),A. baumannii 1757 [3]; mean ± SD,1.1 ± 1.20 µM
